According to patent US12274710B2, “Compound for regulating body weight imbalance, composition thereof and application thereof” (GUANGZHOU CENTURY CLINICAL RESEARCH CO., LTD, priority 2019, dated 2025):
Like-named read-outs stand apart in the source and are kept apart here.

How the values were obtained:
[1] = tested on: patients diagnosed with gastric ulcer or duodenal ulcer; conditions: 4 weeks
Excerpt: (§1) Efficacy and safety of the compound of the present disclosure in treating ulcers were studied in patients suffering from gastric ulcer or duodenal ulcer.
(§2) The dosage was based on a standard dosage of 3 g per day and should be increased or decreased according to individual conditions of the patients.
The number of ulcer foci and the area of ulcer foci (mm^2) of each patient were checked before and after the treatment, and the efficacy after treatment was judged according to the following criteria:
Completely healed: after the treatment, the ulcers and surrounding inflammation all disappeared after an endoscopic examination;
Basically healed: after the treatment, the ulcers disappeared in an endoscopic examination, but there was still inflammation; and partially healed: after the treatment, the area of the ulcers was reduced by 50% or more in an endoscopic examination; and
Unhealed: after the treatment, the area of the ulcers was reduced by less than 50% in an endoscopic examination.
The healing rate was used as an indicator of efficacy. Healing rate=(number of completely healed patients+number of basically healed patients)÷total number of patients in this group×100%.

[2] = tested on: patients diagnosed with gastric ulcer or duodenal ulcer; test: Routine examination indicators and digestive function before and after drug treatment (safety); assay type: in vivo, human; conditions: after treatment, 4 weeks
Excerpt: as §1, §2
The number of red blood cells, the number of white blood cells, ALT, AST, serum creatinine, urine protein and other laboratory test items were checked before and after treatment. Routine clinical diagnostic criterias were used to determine whether the test items were normal and the normal rate was calculated. Normal rate of test indicators=number of patients with normal test indicators÷total number of patients in this group×100%
Effects of the drug on normal digestive function of the patients were also investigated before and after treatment by determining the rate of loose stool and the rate of constipation: Rate of loose stool=number of patients with loose stool÷total number of patients in this group×100%; and Rate of constipation=number of patients with constipation÷total number of patients in this group×100%.

[3] = for Rate of weight change: after treatment vs before, 4 weeks
Excerpt: as §2
Weight changes of patients before and after treatment were also investigated: Rate of weight change=(weight after treatment−weight before treatment)÷weight before treatment×100%.

rats in obese model = test: Effect on BMI of rats in obese model (formula feed); assay type: in vivo, SD rats; conditions: for BMI / BMI of animals compared with the model group (in words): 4 weeks; for BMI: model group 7.73 ± 0.27
Excerpt: Except the blank group and the model group, each group had three subgroups: low dose, middle dose, and high dose. There were 6 animals in each subgroup.
The animals in the blank group were fed with a common feed every day. The animals in each group except the blank group were fed with a formula feed every day. The formula feed contained 5% of cholesterol, 6% of sucrose, 20% of egg yolk, 6% of peanut butter, 12% of whole milk powder, 6% of sesame oil (the percentage was by mass) and other ingredients of the common feed.
Each test drug was mixed with 5% methylcellulose solution; the animals in each group except the blank group and the model group were administered intragastrically respectively with a low dose of 100 mg/kg, a middle dose of 400 mg/kg and a high dose of 1,600 mg/kg; the animals in the blank group and the model group were not administered with the test drug and they were administered intragastrically with the same amount of 5% methylcellulose solution respectively. The intragastric administration was conducted once a day continuously for 4 weeks.
During the test process, the animals in each group were able to eat normally without anorexia. The stool characteristics were normal and no obvious diarrhea occurred.
After the last drug administration, the animals in each group were fasted for 12 h, during which water was provided, and then the animals were weighed.
Body length (distance from the nose to the anus) was measured after the animals were anesthetized with sodium pentobarbital and body mass index (BMI) (BMI=weight (kg)÷(height (m))^2) was calculated.
Statistical analysis was conducted by using the data in each group and the main results were screened and shown in Table 3 (Note: some test drugs in the table only list the middle-dose subgroups).

[4] = tested on: persons suffering from weight imbalance
[5] = middle dose 400 mg/kg intragastrically once a day

What does the source list for dosmalfate [compound 3]?
Healing rate of ulcers ([1]; Group 0.5 g/day, 10 patients): 30.0%; Healing rate of ulcers ([1]; Group 1 g/day, 18 patients): 55.6%; Healing rate of ulcers ([1]; Group 3 g/day, 37 patients): 62.2%; Healing rate of ulcers ([1]; Group 9 g/day, 10 patients): 80.0%; Healing rate of ulcers ([1]; Group 18 g/day, 5 patients): 80.0%; Normal rate of ALT ([2]; Group 0.5 g): 90.0%; Normal rate of AST ([2]; Group 0.5 g): 100.0%; Normal rate of red blood cells ([2]; Group 0.5 g): 100.0%; Normal rate of serum creatinine ([2]; Group 0.5 g): 100.0%; Normal rate of urine protein ([2]; Group 0.5 g): 100.0%; Normal rate of white blood cells ([2]; Group 0.5 g): 100.0%; Rate of constipation ([2]; Group 0.5 g): 0.0%; Rate of loose stool ([2]; Group 0.5 g): 0.0%; Normal rate of ALT ([2]; Group 1 g): 94.4%; Normal rate of AST ([2]; Group 1 g): 100.0%; Normal rate of red blood cells ([2]; Group 1 g): 94.4%; Normal rate of serum creatinine ([2]; Group 1 g): 100.0%; Normal rate of urine protein ([2]; Group 1 g): 94.4%; Normal rate of white blood cells ([2]; Group 1 g): 100.0%; Rate of constipation ([2]; Group 1 g): 0.0%; Rate of loose stool ([2]; Group 1 g): 0.0%; Normal rate of ALT ([2]; Group 3 g): 91.9%; Normal rate of AST ([2]; Group 3 g): 94.6%; Normal rate of red blood cells ([2]; Group 3 g): 94.6%; Normal rate of serum creatinine ([2]; Group 3 g): 94.6%; Normal rate of urine protein ([2]; Group 3 g): 94.6%; Normal rate of white blood cells ([2]; Group 3 g): 91.9%; Rate of constipation ([2]; Group 3 g): 2.7%; Rate of loose stool ([2]; Group 3 g): 0.0%; Normal rate of ALT ([2]; Group 9 g): 90.0%; Normal rate of AST ([2]; Group 9 g): 90.0%; Normal rate of red blood cells ([2]; Group 9 g): 90.0%; Normal rate of serum creatinine ([2]; Group 9 g): 100.0%; Normal rate of urine protein ([2]; Group 9 g): 100.0%; Normal rate of white blood cells ([2]; Group 9 g): 100.0%; Rate of constipation ([2]; Group 9 g): 0.0%; Rate of loose stool ([2]; Group 9 g): 0.0%; Normal rate of ALT ([2]; Group 18 g): 100.0%; Normal rate of AST ([2]; Group 18 g): 100.0%; Normal rate of red blood cells ([2]; Group 18 g): 80.0%; Normal rate of serum creatinine ([2]; Group 18 g): 100.0%; Normal rate of urine protein ([2]; Group 18 g): 100.0%; Normal rate of white blood cells ([2]; Group 18 g): 80.0%; Rate of constipation ([2]; Group 18 g): 0.0%; Rate of loose stool ([2]; Group 18 g): 0.0%; Rate of weight change ([3]; Group 0.5 g): −4.2%; Rate of weight change ([3]; Group 1 g): −5.3%; Rate of weight change ([3]; Group 3 g): −7.0%; Rate of weight change ([3]; Group 9 g): −7.1%; Rate of weight change ([3]; Group 18 g): −3.8%; Effect on weight of ulcer patients (in words) ([3]; each dosage group, after 4 weeks of administration): weight loss to varing degrees; BMI (rats in obese model; high dose 1,600 mg/kg intragastrically once a day): 5.85 ± 0.23 kg/m^2; BMI (rats in obese model; low dose 100 mg/kg intragastrically once a day): 6.72 ± 0.32 kg/m^2; BMI (rats in obese model; [5]): 6.06 ± 0.29 kg/m^2; BMI of animals compared with the model group (in words) (rats in obese model; obese model rats): significantly reduced; Relative effectiveness on BMI at the same dose (in words) (rats in obese model; obese model rats, same dose): more effective than compound 1 and compound 2; Uric acid level after administration ([4]; A person, 680 μmol/L before, 3 g three times a day, two months, no uric acid-lowering drug): 600 µmol/L; BMI index after administration ([4]; A person, BMI 29 before, 1.5 g three times a day, three months): 25.7; BMI index after administration ([4]; A person, BMI 32 before, 3 g three times a day, two months): 28.2; BMI index after administration ([4]; Person, BMI 25 before, 1 g twice a day, two months): 22; Body weight after administration ([4]; Person, obesity and hyperuricemia, 85 kg before, 3 g three times a day, two months): 75 kg; Body weight after administration ([4]; Person, polycystic ovary syndrome, 62 kg before, 1.5 g three times a day, three months): 55 kg

For sucralfate [reference compound], which BMI (rats in obese model; [5]) is on record?
The BMI was 7.87 ± 0.34 kg/m^2.

And the “BMI of animals compared with the model group (in words)” value (rats in obese model; obese model rats)?
Its value is “no significant difference”.

For `COc1ccc(-c2cc(=O)c3c(O)cc(O[C@@H]4O[C@H](CO[C@@H]5O[C@@H](C)[C@H](O)[C@@H](O)[C@H]5O)[C@@H](O)[C@H](O)[C@H]4O)cc3o2)cc1O` [diosmin, reference compound], which BMI (rats in obese model; [5]) is on record?
Its BMI is 7.60 ± 0.39 kg/m^2.

What about the “BMI of animals compared with the model group (in words)” value (rats in obese model; obese model rats) of the same molecule?
Its value is “no significant difference”.
